Source: patent US20220378923A1, “BET DEGRADER” (KYOWA KIRIN CO., LTD., priority 2019, published 2022)

Molecular target: T1, interaction between BRD2 and E3 ligase DCAF16 (Homo sapiens, UniProt P25440)
T1 construct: expressed in transfected cells; host or cells: HEK293
Assay: Verification of BET-DCAF16 interaction, NanoBRET in HEK293 cells (Test Example 7)
Type: cell-based
Settings: test compound 10 μmol/L, 2 hours; HEK293 cells expressing Nluc-BRD2 and DCAF16-HaloTag; bortezomib; average of n=3
Procedure: HEK293 cells (ATCC® CRL-1573™) were cultured using a carbon dioxide gas incubator (95% air, 5% CO2) at 37° C. in DMEM, High Glucose, Pyruvate (DMEM: Code No. 11995073, Thermo Fisher Scientific) in which inactivated fetal bovine serum (FBS: Code No. 10099-148 (Thermo Fisher Scientific) was added in an amount to give a final concentration of 10 vol %. A Falcon® 100 mm×20 mm cell culture dish (Code No. 353003, CORNING) was used for cell culture.
A sequence encoding BRD2 was cleaved from pFN21AB3863 (Code No. FHC01342, Kazusa Genome Technologies) using Flexi Enzyme Blend (SgfI and PmeI) (Code No. R1852, Promega) and recombined with pFN31A Nluc CMV-Hygro Flexi® Vector (Code No. N131A, Promega) similarly cleaved using Flexi Enzyme Blend (SgfI and PmeI) to prepare a plasmid pFN31A_BRD2 expressing BRD2 with an Nluc tag added to the N-terminal. A sequence encoding DCAF16 having sgfI and pmeI restriction enzyme sites at both ends was amplified and purified by polymerase chain reaction using two primers, […] (SEQ ID NO: 4) and […] (SEQ ID NO: 5) from cDNA derived from HEK293 cells. Cleavage was performed using Flexi Enzyme Blend (SgfI and PmeI), and pFC27K HaloTag® CMV-neo Flexi® Vector (Code No. G8431, Promega) cleaved using Carboxy Flexi Enzyme Blend (Sgf I and EcoICR I) (Code No. R1901, Promega) was recombined to prepare a plasmid pFC27K_DCAF16 expressing DCAF16 with HaloTag added to the C-terminal. Sequencing was performed and confirmed that the sequence encoding DCAF16 matched NM_001345880.
Cultured HEK293 cells were washed with DPBS, no calcium, no magnesium (DPBS: Code No. 14190144, Thermo Fisher Scientific) and harvested using TrypLE™ Express Enzyme (1×), phenol red (TrypLE: Code No. 12605036, Thermo Fisher Scientific), and prepared to be 4.0×10^5 cells/mL in DMEM. A volume of 12 mL of the cell suspension was seeded in a Falcon® 100 mm×20 mm cell culture dish and cultured in a carbon dioxide gas incubator at 37° C. for 6 hours. For one dish, 12 μg of pFC27K_DCAF16, 0.12 μg of p FN31A_BRD2, 48 μL of FuGENE® HD Transfection Reagent (Code No. E2312, Promega) were added to 600 μL of Opti-MEM™ I Reduced Serum Medium, no phenol red (Opti-MEM: Code No. 11058021, Thermo Fisher Scientific) and mixed. The mixture was allowed to stand for 15 minutes and added to HEK293 cells. After 20 hours, the cells were washed with DPBS, no calcium, no magnesium, harvested from the dish using TrypLE, and then neutralized in DMEM. After centrifugation, the supernatant was discarded, and the cells were prepared to be 2.2×10^5 cells/mL using Opti-MEM containing 4% FBS. HaloTag® NanoBRET™ 618 Ligand contained in NanoBRET™ Nano-Glo® Detection System (Code No. N1662, Promega) and bortezomib as a proteasome inhibitor were added to be a 1000-fold dilution. In addition, a group was prepared to which DMSO was added instead of HaloTag® NanoBRET™ 618 Ligand. 90 μL of the cell suspension was seeded in CulturPlate-96 (Code No. 6005688, PerkinElmer), and allowed to stand in a carbon dioxide gas incubator at 37° C. for 30 minutes. A volume of 10 mmol/L of a solution of the test compound in DMSO was adjusted to be 100 μmol/L with Opti-MEM, 10 μL of the solution was added to each well, and then the mixture was allowed to stand in a carbon dioxide gas incubator at 37° C. for 2 hours. At this time, all the groups were prepared so that the final concentration of DMSO was 0.1 vol % including the group to which the test compound was not added. NanoBRET™ Nano-Glo® Substrate included in the NanoBRET™ Nano-Glo® Detection System was diluted 100-fold with Opti-MEM. After adding 25 μL of the dilution each and stirring for 30 seconds, measurement was performed with an Emission Filter of 460 nm and 620 nm using EnVision (PerkinElmer). The BRET ratio of 10 μmol/L for each test compound was calculated using the following formula. The experiment was performed by n=3 and the average value was calculated. […]

T1 sequence (P25440 whole entry): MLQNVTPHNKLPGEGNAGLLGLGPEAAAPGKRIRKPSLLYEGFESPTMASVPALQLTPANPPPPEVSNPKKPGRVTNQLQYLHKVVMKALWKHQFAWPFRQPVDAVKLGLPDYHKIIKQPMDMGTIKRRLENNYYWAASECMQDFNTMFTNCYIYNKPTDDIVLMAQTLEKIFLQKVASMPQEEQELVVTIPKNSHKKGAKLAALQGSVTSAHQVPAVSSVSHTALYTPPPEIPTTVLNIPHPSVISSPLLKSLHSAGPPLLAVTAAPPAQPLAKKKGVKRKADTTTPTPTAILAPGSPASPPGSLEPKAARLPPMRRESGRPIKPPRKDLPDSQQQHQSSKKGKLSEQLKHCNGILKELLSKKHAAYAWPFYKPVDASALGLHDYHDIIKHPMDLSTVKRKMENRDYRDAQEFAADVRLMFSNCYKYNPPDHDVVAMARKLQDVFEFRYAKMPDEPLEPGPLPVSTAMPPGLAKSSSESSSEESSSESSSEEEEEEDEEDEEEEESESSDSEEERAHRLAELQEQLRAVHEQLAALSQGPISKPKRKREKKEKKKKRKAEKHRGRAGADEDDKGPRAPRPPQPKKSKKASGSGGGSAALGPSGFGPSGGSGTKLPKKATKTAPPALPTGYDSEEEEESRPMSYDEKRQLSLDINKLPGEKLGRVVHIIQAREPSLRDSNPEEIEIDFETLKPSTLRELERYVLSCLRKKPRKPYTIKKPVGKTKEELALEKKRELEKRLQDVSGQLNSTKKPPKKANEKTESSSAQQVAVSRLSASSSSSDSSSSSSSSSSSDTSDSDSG
T1 sequence (Q9NXF7 whole entry partner): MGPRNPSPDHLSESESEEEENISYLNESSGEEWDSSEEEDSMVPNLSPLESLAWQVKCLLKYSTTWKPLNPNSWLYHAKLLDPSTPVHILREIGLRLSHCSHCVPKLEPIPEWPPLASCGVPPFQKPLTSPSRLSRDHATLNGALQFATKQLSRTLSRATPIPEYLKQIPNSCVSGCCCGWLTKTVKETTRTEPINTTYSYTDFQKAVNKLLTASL

BRET Ratio | Compound
6.84 | CCC(=O)N1c2ccccc2[C@H](Nc2ccc(C(=O)NCCCNC(=O)c3ccc(C4=N[C@@H](CC(=O)OC(C)(C)C)c5nnc(C)n5-c5sc(C)c(C)c54)cc3)cc2)C[C@@H]1C [Compound 1h, tert-Butyl 2-[(S)-2,3,9-trimethyl-4-(4-{[3-(4-{[(2S,4R)-2-methyl-1-propionyl-1,2,3,4-tetrahydroquinolin-4-yl]amino}benzamide)propyl]carbamoyl}phenyl)-6H-thieno[3,2-f][1,2,4]triazolo[4,3-a][1,4]diazepin-6-yl]acetate]
8.03 | CCC(=O)N1c2ccccc2[C@H](Nc2ccc(C(=O)NCC(=O)CNC(=O)c3ccc(N[C@@H]4C[C@H](C)N(C(=O)CC)c5ccccc54)cc3)cc2)C[C@@H]1C [Compound 1l, N,N′-(2-Oxopropane-1,3-diyl)bis(4-{[(2S,4R)-2-methyl-1-propionyl-1,2,3,4-tetrahydroquinolin-4-yl]amino}benzamide)]
8.51 | CCC(=O)N1c2ccccc2[C@H](Nc2ccc(C(=O)NCc3cn(-c4ccc(N[C@@H]5C[C@H](C)N(C(=O)CC)c6ccccc65)cc4)nn3)cc2)C[C@@H]1C [Compound 3a, 4-{[(2S,4R)-2-Methyl-1-propionyl-1,2,3,4-tetrahydroquinolin-4-yl]amino}-N-{[1-(4-{[(2S,4R)-2-methyl-1-propionyl-1,2,3,4-tetrahydroquinolin-4-yl]amino}phenyl)-1H-1,2,3-triazol-4-yl]methyl}benzamide]
5.96 | CCC(=O)N1c2ccccc2[C@H](Nc2ccc(C(=O)N3CCn4c(-c5ccc(N[C@@H]6C[C@H](C)N(C(=O)CC)c7ccccc76)cc5)cnc4C3)cc2)C[C@@H]1C [Compound 3e, 1-[(2S,4R)-2-Methyl-4-({4-[3-(4-{[(2S,4R)-2-methyl-1-propionyl-1,2,3,4-tetrahydroquinolin-4-yl]amino}phenyl)-5,6,7,8-tetrahydroimidazo[1,2-a]pyrazine-7-carbonyl]phenyl}amino)-3,4-dihydroquinolin-1(2H)-yl]propan-1-one]
7.07 | CCC(=O)N1c2ccccc2[C@H](Nc2ccc(NC(=O)CCCC(=O)Nc3ccc(N[C@@H]4C[C@H](C)N(C(=O)CC)c5ccccc54)cc3)cc2)C[C@@H]1C [Compound 6k, N^1,N^5-Bis(4-(((2S,4R)-2-methyl-1-propionyl-1,2,3,4-tetrahydroquinolin-4-yl)amino)phenyl)glutaramide]
6.69 | CCC(=O)N1c2ccccc2[C@H](Nc2ccc(NC(=O)CCCC(=O)NC3CCC(N[C@@H]4C[C@H](C)N(C(=O)CC)c5ccccc54)CC3)cc2)C[C@@H]1C (stereo partly drawn) [Compound 7o, N^1-((1R,4r)-4-(((2S,4R)-2-Methyl-1-propionyl-1,2,3,4-tetrahydroquinolin-4-yl)amino)cyclohexyl)-N^5-(4-(((2S,4R)-2-methyl-1-propionyl-1,2,3,4-tetrahydroquinolin-4-yl)amino)phenyl)glutaramide]
6.8 | CCC(=O)N1c2ccccc2[C@H](Nc2ccc(NC(=O)N3CCN(C(=O)C4CCC(N[C@@H]5C[C@H](C)N(C(=O)CC)c6ccccc65)CC4)CC3)cc2)C[C@@H]1C (stereo partly drawn) [Compound 7p, 4-((1R,4r)-4-(((2S,4R)-2-Methyl-1-propionyl-1,2,3,4-tetrahydroquinolin-4-yl)amino)cyclohexane-1-carbonyl)-N-(4-(((2S,4R)-2-methyl-1-propionyl-1,2,3,4-tetrahydroquinolin-4-yl)amino)phenyl)piperazine-1-carboxamide]
7.27 | CCC(=O)N1c2ccccc2[C@H](Nc2ccc(-n3cc(CCNC(=O)[C@H]4CC[C@H](N[C@@H]5C[C@H](C)N(C(=O)CC)c6ccccc65)CC4)nn3)cc2)C[C@@H]1C [Compound 8a, (1R,4r)-4-(((2S,4R)-2-Methyl-1-propionyl-1,2,3,4-tetrahydroquinolin-4-yl)amino)-N-(2-(1-(4-(((2S,4R)-2-methyl-1-propionyl-1,2,3,4-tetrahydroquinolin-4-yl)amino)phenyl)-1H-1,2,3-triazol-4-yl)ethyl)cyclohexane-1-carboxamide]
7.07 | CCC(=O)N1c2ccccc2[C@H](Nc2ccc(NC(=O)CNC(=O)N[C@H]3CC[C@H](N[C@@H]4C[C@H](C)N(C(=O)CC)c5ccccc54)CC3)cc2)C[C@@H]1C [Compound 8j, 2-(3-((1R,4R)-4-(((2S,4R)-2-Methyl-1-propionyl-1,2,3,4-tetrahydroquinolin-4-yl)amino)cyclohexyl)ureido)-N-(4-(((2S,4R)-2-methyl-1-propionyl-1,2,3,4-tetrahydroquinolin-4-yl)amino)phenyl)acetamide]
7.6 | CCC(=O)N1c2ccccc2[C@H](Nc2ccc(NC(=O)CCCC(=O)NC3CCN(Cc4cc(O)cc(-c5c(C)noc5C)c4)CC3)cc2)C[C@@H]1C [Compound 12c, N^1-(1-(3-(3,5-Dimethylisoxazol-4-yl)-5-hydroxybenzyl)piperidin-4-yl)-N^5-(4-(((2S,4R)-2-methyl-1-propionyl-1,2,3,4-tetrahydroquinolin-4-yl)amino)phenyl)glutaramide]
5.88 | CCC(=O)N1c2ccccc2[C@H](Nc2ccc(NC(=O)CCCC(=O)Nc3ccc(Cn4c(C(=O)OCCN(C)C)cc5c4CCCC5=O)cc3)cc2)C[C@@H]1C [Compound 15a, 2-(Dimethylamino)ethyl 1-(4-(5-((4-(((2S,4R)-2-methyl-1-propionyl-1,2,3,4-tetrahydroquinolin-4-yl)amino)phenyl)amino)-5-oxopentanamide)benzyl)-4-oxo-4,5,6,7-tetrahydro-1H-indole-2-carboxylate]
5.99 | CCC(=O)N1c2ccccc2[C@H](Nc2ccc(-n3cc(CNC(=O)c4ccc(Cn5c(CC)cc6c5CCCC6=O)cc4)nn3)cc2)C[C@@H]1C [Compound 15f, 4-((2-Ethyl-4-oxo-4,5,6,7-tetrahydro-1H-indol-1-yl)methyl)-N-((1-(4-(((2S,4R)-2-methyl-1-propionyl-1,2,3,4-tetrahydroquinolin-4-yl)amino)phenyl)-1H-1,2,3-triazol-4-yl)methyl)benzamide]

Compound | BRET Ratio
Cc1sc2c(c1C)C(c1ccc(C(=O)NCc3cn(-c4ccc(C5=N[C@@H](CC(=O)OC(C)(C)C)c6nnc(C)n6-c6sc(C)c(C)c65)cc4)nn3)cc1)=N[C@@H](CC(=O)OC(C)(C)C)c1nnc(C)n1-2 [Compound 3b, tert-Butyl 2-[(S)-4-(4-{4-[(4-{(S)-6-[2-(tert-butoxy)-2-oxoethyl]-2,3,9-trimethyl-6H-thieno[3,2-f][1,2,4]triazolo[4,3-a][1,4]diazepin-4-yl}benzamide)methyl]-1H-1,2,3-triazol-1-yl}phenyl)-2,3,9-trimethyl-6H-thieno[3,2-f][1,2,4]triazolo[4,3-a][1,4]diazepin-6-yl]acetate] | 6.06
